Structures can show the parent of a compound that is named as a salt.
Tests used:
Assay type in all cases: in vitro ADME
[1] = Franz-type diffusion of 5-aminolevulinic acid through human epidermis; details: at 4 h; 2% w/v solution in PBS pH 7.4; with Dermaportation only (0-4 h)
Experimental: Overview: ALA solution was applied to the surface of human epidermis for a contact period of up to 4 h. Dermaportation applied continuously from 0 to 4 h was compared to passive diffusion. ALA penetrating the epidermis would diffuse into a receptor fluid of phosphate buffered saline (pH 7.4: PBS). The receptor fluid was analysed for ALA content by high performance liquid chromatography (HPLC).
In vitro epidermal penetration: Human skin was obtained following abdominoplasty surgery under existing approval from the Human Research Ethics Committee of Curtin University. Skin from a donor was used in this study. The epidermis was heat separated from the dermis using standard procedures (Kligman and Christophers 1963). The epidermis was mounted in Franz-type diffusion cells with the stratum corneum facing the donor compartment. Skin integrity was determined by conductance measurement.
The receptor compartment was filled with phosphate buffered saline pH 7.4, stirred continuously and maintained at 37° C. throughout the experiment. ALA solution (2% w/v of ALA in phosphate buffered saline pH 7.4) was applied to the donor side of the epidermis. Dermaportation (cycle 2) was applied from time 0 to 4 h. […] The content of ALA in receptor fluid samples was analysed by HPLC with ultraviolet detection using a validated assay procedure. […]

[2] = Franz-type diffusion of naltrexone through human epidermis, Dermaportation vs passive; details: for flux0-2h (skin penetration): 0.5% w/v in PBS pH 7.4
Experimental: (§1) Human skin was obtained following abdominoplasty surgery under existing approval from the Human Research Ethics Committee of Curtin University.
(§2) The epidermis was heat separated from the dermis using standard procedures (Kligman and Christophers 1963). The epidermis was mounted in Franz-type diffusion cells with the stratum corneum facing the donor compartment. Skin integrity was determined by conductance measurement. The receptor compartment was filled with phosphate buffered saline pH 7.4, stirred continuously and maintained at 37° C. throughout the experiment. Naltrexone (0.5% w/v) in phosphate buffered saline (pH 7.4) was applied to the donor side of the epidermis.
Dermaportation was applied from time 0 to 4 h. Samples were removed from the receptor fluid at time points up to 8 h. At each time point the receptor fluid volume was replaced with fresh receptor solution preheated to 37° C. Four Dermaportation cells and 4 passive cells (no Dermaportation) were conducted using skin from the abdominal region of a donor. The content of naltrexone in receptor fluid samples was analysed by HPLC with ultraviolet detection using a validated assay procedure.
The cumulative amount of naltrexone in receptor versus time was plotted and flux values calculated from the slopes per group.

[3] = Franz-type diffusion of Voltaren Emulgel diclofenac through human epidermis, Dermaportation vs passive; details: for flux (skin penetration): PBS receptor, 37° C.; for cumulative amount penetrated: at 8 h
Experimental: Human epidermis was mounted in vertical Franz type diffusion cells (stratum corneum facing up), according to the method of Kligman and Christophers (1963). Voltaren Emulgel® (1 g containing 1.16% diclofenac diethylammonium salt; Novartis) was applied to the donor compartment of diffusion cells, with PBS in the receptor compartment (3.0 mL; stirred continuously; 37° C.). Dermaportation coils were placed around the exterior of 4 cells, with 4 additional cells without coils (passive control). Dermaportation energy was applied from time 30-60 min. Samples of the receptor solution were removed and replaced with fresh buffer over an 8 h period. All samples were analysed for diclofenac content by HPLC with UV detection by a validated method. The cumulative amount of diclofenac in receptor versus time was plotted and flux values calculated from the slopes per group. Statistical analyses used a t-test on the delta scores from the zero time point to the time point in question.

[4] = Franz-type diffusion of hydrocortisone through human epidermis, Dermaportation vs passive; details: for flux (skin penetration): saturated solution in 20:80 ethanol:PBS pH 7.4; for cumulative amount penetrated: at 30 min
Experimental: as §1
as §2, with “20:80 ethanol:phosphate” for “phosphate”, “Hydrocortisone solution (1 mL of saturated solution” for “Naltrexone (0.5% w/v)”, “pH 7.4; solubility approx 1 mg/mL)” for “(pH 7.4)”
Dermaportation was applied from time 0 to 4 h. Samples were removed from the receptor fluid at time points up to 4 h. At each time point the receptor fluid volume was replaced with fresh receptor solution preheated to 37° C. Four Dermaportation cells and three passive cells (no Dermaportation) were conducted using skin from the abdominal region of a donor. The content of hydrocortisone in receptor fluid samples was analysed by HPLC with ultraviolet detection using a validated assay procedure.
The cumulative amount of hydrocortisone in receptor versus time was plotted and flux values calculated from the slopes per group.

NCC(=O)CCC(=O)O [ALA, 5-aminolevulinic acid]
applied dose penetrated to the receptor [1]: approximately 40%

O=C1CC[C@@]2(O)[C@H]3Cc4ccc(O)c5c4[C@@]2(CCN3CC2CC2)[C@H]1O5 [naltrexone, Naltrexone]
flux0-2h (skin penetration) ([2]; Dermaportation 0-4 h): 152.6 μg/cm^2/h | diffusion with Dermaportation compared with passive administration ([2]; Dermaportation for 240 min, Time by Treat interaction p<0.05): diffused faster and in more quantity | flux0-2h (skin penetration) ([2]; passive administration): 1.6 μg/cm^2/h

O=C(O)Cc1ccccc1Nc1c(Cl)cccc1Cl [diclofenac, diclofenac diethylammonium salt]
flux (skin penetration) ([3]; Dermaportation applied 30-60 min, Voltaren Emulgel 1 g (1.16% diclofenac diethylammonium salt)): 2.97 µg/h | cumulative amount penetrated ([3]; Dermaportation applied 30-60 min): 14.25 µg | cumulative amount penetrated ([3]; passive diffusion): 7.59 µg | flux (skin penetration) ([3]; passive administration, Voltaren Emulgel 1 g): 1.58 µg/h | diffusion level versus zero time point (t-test delta score) ([3]; passive diffusion, any time point up to 8 h): did not reach diffusion levels different from 0

C[C@]12CCC(=O)C=C1CC[C@@H]1[C@@H]2[C@@H](O)C[C@@]2(C)[C@H]1CC[C@]2(O)C(=O)CO [hydrocortisone, Hydrocortisone]
flux (skin penetration) ([4]; Dermaportation 0-4 h): 2.44 μg/cm^2/h | cumulative amount penetrated ([4]; Dermaportation): 93.22 µg | cumulative amount penetrated ([4]; passive diffusion): 2.51 µg | flux (skin penetration) ([4]; passive administration): 0.08 μg/cm^2/h
